Earlier results as cited in patent US4975422A, “Angiogenesis inhibitor” (Kureha Kagaku Kogyo Kabushiki Kaisha, priority 1988, dated 1990).

Settings: oral; species not stated

## COc1ccc2c(c1)c(CC(=O)O)c(C)n2C(=O)c1ccc(Cl)cc1 [indomethacin]
  LD50: 50 mg/kg
